Measured values published in paper PMC6934184, “Selective DNA-PKcs inhibition extends the therapeutic index of localized radiotherapy and chemotherapy” (The Journal of Clinical Investigation, 2019).

Molecular target: T1, PRKACB (PRKAC beta) (Homo sapiens, UniProt P22694)
T1 construct: purchased Thermo Fisher Scientific (Life Technologies) SelectScreen
Assay: SelectScreen LanthaScreen
Format: binding
Conditions: read-out: % displacement
Method in brief: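 NU5455 was profiled across the SelectScreen Broad panel of kinase activity and binding assays. Z'LYTE reactions such as CSF1R ran at apparent Km ATP, while the Adapta CAMK1 assay used ATP listed as 10. Values are given as percent.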

CN(C(=O)CN1CCOCC1)c1ccc2sc3c(-c4cccc5c(=O)cc(N6CC7CCC(C6)O7)oc45)cccc3c2c1 [NU5455]
inhibition at 1 µM: -6.8%
